Results: the OPERA property sets (Mansouri et al. 2018)

SMILES | logP
CCOC(=O)C(=Cc1cccc(C)c1)C(C)=O | 2.8
CC(=O)C(C#N)=NNc1ccc(Cl)cc1 | 4.1
CCOC(=O)N(C)SN(C)C(=O)ON=C(C)SC | 1.9
Nc1nc(N)nc(-c2cc(Cl)ccc2Cl)n1 | 1.97
Cn1nnnc1Sc1ccccc1 | 1.63
CC(=O)OCCOC(=O)c1ccccc1 | 1.85
O=C(NC(CO)C(O)c1ccc([N+](=O)[O-])cc1)c1ccccc1 (centres undefined) | 1.63
CCCCCC[n+]1ccccc1.[Br-] | -2.03
NC1CC2CCC1c1ccccc12 (centres undefined) | 2.29
FC(F)(F)c1nc2c(Cl)ccc(Cl)c2[nH]1 | 2.87
CC1=Nc2c(Br)cc(Cl)cc2S(=O)(=O)N1 | 1.65
CCCCCCOn1c(=O)[nH]c(C)c(Br)c1=O | 2.48
O=C1NC(=S)SC1=Cc1ccc([N+](=O)[O-])o1 | 0.74
CC(C)(C)C(=O)NN1CC=CCC1 | 1.03
CCOP(=O)(OCC)Oc1ccc(SC)cc1C | 3.21
CC(=O)Nc1n[nH]c(NC(C)=O)n1 | -1.02
CSc1cccc(N=NN(C)C)c1 | 2.98
CSC(C)=NOC(=O)N(C)SN(C)C(=O)c1cccc(Cl)c1 | 2.7
CNc1cc(Cc2cnc(N)nc2N)cc(NC)c1 | 0.44
O=[N+]([O-])c1cc2nc(C(F)(F)F)[nH]c2cc1Cl | 3.21

SMILES | logP
Nc1nc(N)nc(-c2cccc(Br)c2)n1 | 2.44
O=C(CNC(=O)c1ccccc1)Oc1cccc(F)c1 | 2.58
O=C(NCC(O)CO)Nc1ccccc1 (centres undefined) | 0.28
COc1ccc(C2=NCC(=O)N(C)c3ccc(Cl)cc32)cc1 | 3.15
COc1ccc(Cc2cnc(N)nc2N)cc1 | 1.34
c1ccc(O[Si]23OCCN(CCO2)CCO3)cc1 | -0.3
CCCCN(SN(C)C(=O)Oc1cccc2c1OC(C)(C)C2)C(=O)OC | 4.6
CCc1cc(OP(=O)(OC)OC)ccc1[N+](=O)[O-] | 2.19
CCOC(=O)C(=Cc1ccccc1C)C(C)=O | 2.66
COP(=O)(NCC(C)C)Oc1cc(Cl)c(Cl)cc1Cl (centres undefined) | 3.86
CSC(C)=NOC(=O)N(C)SN(C)C(=O)OC(C)(C)C | 2.8
CCOC(=O)C(=Cc1ccc(C)cc1)C(C)=O | 2.63
CNC(=O)ON=Cc1cccc(Oc2ccccc2)c1 | 3.12
CC1=Nc2ccc(Br)cc2S(=O)(=O)N1 | 1.37
Clc1cc(Cl)c(Cl)c(-c2ccc(Cl)c(Cl)c2Cl)c1 | 7.39
NNC(=O)NC1CCCCC1 | 0.15
Cc1ccc(C(=O)c2ccncc2)cc1 | 2.51
COc1cc(Cc2cnc(N)nc2N)cc(C)c1OC | 1.62
CCOc1c(OC)cc(Cc2cnc(N)nc2N)cc1OC | 1.34
S=c1[nH]cnc2[nH]cnc12 | 0.01

SMILES | logP
O=C(O)COc1ccc(N=Nc2ccccc2)cc1 | 2.99
NC1=NC(=O)C(=Cc2ccc([N+](=O)[O-])o2)S1 | 1.09
COc1cc(Cc2cnc(N)nc2N)cc(OC)c1C(C)(C)O | 1.49
CCN1C(=O)SC(=Cc2ccc([N+](=O)[O-])o2)C1=O | 2.29
COc1cc(S(=O)(=O)CCN2CCOCC2)cc(OC)c1OC | 1.29
Nc1nc(N)nc(-c2ccc(Cl)cc2Cl)n1 | 2.07
Cc1[nH]c(=O)n(OCC(C)C)c(=O)c1Br | 1.23
CNC(=O)ON=Cc1ccc(Cl)c(Cl)c1 | 2.89
COc1cc(Cc2cnc(N)nc2N)cc(OC)c1Cl | 1.87
COc1cc(C)n(-c2cc(C)nc(C)n2)n1 | 2.6
CCCOn1c(=O)[nH]c(C)c(Br)c1=O | 0.76
CSc1ccc2c(c1)C(c1ccccc1)=NCC(=O)N2 | 2.92
COCCN(CCOC)/N=N/c1nc[nH]c1C(N)=O | 0.03
CCC(=O)Cn1ccnc1C=Cc1occc1[N+](=O)[O-] | 1.27
S=C=Nc1ccc(-c2ccc(N=C=S)cc2)cc1 | 5.5
CC(C)c1nnc(N)o1 | 0.2
CCCCNP(=O)(OC)SC (centres undefined) | 0.94
S=C=Nc1ccc(C=Cc2ccccc2)cc1 | 5.85
CN(Cc1ccccc1)N=Nc1ccc(C(N)=O)cc1 | 2.76
